Publication PMC3985856 (Biochemistry, 2014)

Target: T1, BAL (benzaldehyde lyase) (Pseudomonas fluorescens, UniProt Q9F4L3)
T1 sequence (Q9F4L3 1-563): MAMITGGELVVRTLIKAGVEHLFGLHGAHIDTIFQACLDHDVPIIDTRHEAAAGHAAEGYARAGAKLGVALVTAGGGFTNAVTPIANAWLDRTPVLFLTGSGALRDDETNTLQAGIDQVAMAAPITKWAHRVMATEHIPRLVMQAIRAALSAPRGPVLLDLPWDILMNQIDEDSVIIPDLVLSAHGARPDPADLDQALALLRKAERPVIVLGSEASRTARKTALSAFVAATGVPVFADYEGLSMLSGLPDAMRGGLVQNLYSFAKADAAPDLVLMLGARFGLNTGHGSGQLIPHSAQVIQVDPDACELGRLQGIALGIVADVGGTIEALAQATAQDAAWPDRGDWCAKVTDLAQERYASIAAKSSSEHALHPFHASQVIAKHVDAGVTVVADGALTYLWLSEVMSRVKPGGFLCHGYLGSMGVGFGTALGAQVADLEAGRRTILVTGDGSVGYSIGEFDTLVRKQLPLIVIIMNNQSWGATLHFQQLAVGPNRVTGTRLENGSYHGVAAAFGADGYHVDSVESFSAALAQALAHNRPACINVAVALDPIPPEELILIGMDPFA
Assay: CD titration, Hill fit
Format: binding
Conditions: pH 8.0, 50 mM Tris, 0.2 mM ThDP, 1 mM MgCl2, 30 °C; covalent adduct with ThDP

**Q.** For `O=C(O)C(=O)/C=C/c1ccc(Cl)cc1` [CPB, (E)-4-(4-chlorophenyl)-2-oxo-3-butenoic acid], which Kd is on record?
**A.** 1.1 mM
